Data from patent US4797415A, “Benzofuran derivatives and use thereof for treating hyperuricemia” (Kotobuki Seiyaku Company Limited, priority 1982, dated 1989).
Read-outs that look alike come from different tables or passages of the source.

Tests used:
[1] = system: phenol red retention in circulation; test: Uricosuric activity by phenol red retention test in mice; type: in vivo, male mice; conditions: mice, 30 min before 75 mg/kg phenol red, blood 60 min after phenol red; for response vs control in vivo at 200 mg/kg: Mus musculus, 1 h
Method: (§1) Blood samples were collected from the retro-orbital plexus into heparinized capillary tubes 60 minutes after the phenol red injection. The retention of phenol red in circulation was determined according to the method described in J. Med. Pharmaceu.
Benzobromarone was administered subcutaneously to mice in an amount of 200 mg./kg. as a control or standard.

[2] = system: phenol red retention; test: Uricosuric activity by phenol red method in rats; type: in vivo; conditions: p.o. 100 mg/kg
Method: as §1
The same test of uricosuric activity was applied to rats.

[3] = po, p.o. 200 mg/kg, read-out: phenol red retention, percentage by comparison with the control group, P.O. (200 mg/kg)
[4] = sc, s.c. 200 mg/kg, read-out: phenol red retention, percentage by comparison with the control group, S.C. (200 mg/kg)

| Structure (SMILES) | response vs control in vivo at 200 mg/kg [1, 3] [%] | response vs control in vivo at 200 mg/kg [1, 4] [%] | also measured |
| --- | --- | --- | --- |
| CCc1sc2ccccc2c1C(=O)c1ccc(OCC(=O)O)cc1 [Compound 31, 4-(2-ethyl-3-benzothenoyl)phenoxyacetic acid] | 162 ± 31.3 | 144 ± 22.2 | – |
| CCc1oc2ccccc2c1C(=O)c1ccc(OCC(N)=O)cc1 [Compound 7, 4-(2-ethyl-3-benzofuroyl)phenoxyacetamide] | 104 ± 8.3 | 123 ± 23.1 | – |
| C=C(CC(=O)c1c(CC)oc2ccccc12)C(=O)O [Compound 21, 2-methylene-4-oxo-4-(2-ethyl-3-benzofuranyl)butyric acid] | 165 ± 21.7 | 100 ± 13.6 | – |
| CCc1oc2ccccc2c1C(=O)c1ccc(OCC(=O)O)c(C)c1C [Compound 35, 2,3-dimethyl-4-(2-ethyl-3-benzofuroyl)phenoxyacetic acid] | 319 ± 14.3 | – | Phenol Red Retention % in Rats 100 mg/kg (p.o.) [2]: 269.0 ± 31.0% |
| CCc1oc2ccccc2c1C(=O)c1ccc(OCC(=O)OC)c(C)c1C [Compound 33, Methyl 2,3-dimethyl-4-(2-ethyl-3-benzofuroyl)phenoxyacetate] | 133 ± 15.6 | – | – |
| CCc1oc2ccccc2c1C(=O)c1ccc(OCC(=O)NCC(=O)OC)cc1 [Compound 9, Methyl 4-(2-ethyl-3-benzofuroyl)phenoxyacetoglycinate] | 153 ± 15.8 | 125 ± 18.8 | – |
| CCOC(=O)COc1ccc(C(O)c2c(CC)oc3ccccc23)cc1 (stereo not drawn) [Compound 13, Ethyl 4-(2-ethyl-3-hydroxymethylbenzofuranyl)phenoxyacetate] | – | 114 ± 14.3 | – |
| CCc1oc2ccccc2c1C(=O)c1ccccc1OCC(=O)O [Compound 1, 2-(2-ethyl-3-benzofuroyl)phenoxyacetic acid] | – | 152 ± 15.2 | – |
| CCOC(=O)COc1ccc(C(=O)c2c(CC)sc3ccccc23)cc1 [Compound 30, Ethyl 4-(2-ethyl-3-benzothenoyl)phenoxyacetate] | – | 85.7 ± 14.3 | – |
| CCc1oc2ccccc2c1C(=O)c1ccc(OCC(=O)NCC(N)=O)cc1 [Compound 10, 4-(2-ethyl-3-benzofuroyl)phenoxyacetoglycinamide] | 132 ± 26.3 | 123 ± 23.1 | – |
| CCc1oc2ccccc2c1C(=O)c1cc(C)c(O)cc1C [Compound 36, 2-ethyl-3-(2,5-dimethyl-4-hydroxybenzoyl)benzofuran] | 131 ± 15.6 | – | – |
| CCc1oc2ccccc2c1C(=O)c1ccc(O)c(Cl)c1 [Compound 19, 2-ethyl-3-benzofuranyl 3-chloro-4-hydroxyphenyl ketone] | – | 105 ± 19 | – |
| CCc1oc2ccccc2c1C(=O)c1ccc(O)c(C)c1C [Compound 32, 2-ethyl-3-(2,3-dimethyl-4-hydroxybenzoyl)benzofuran] | 112 ± 18.8 | – | – |
| CCc1oc2ccccc2c1C(=O)c1ccc(OCC(=O)O)c(Cl)c1 [Compound 22, 2-chloro-4-(2-ethyl-3-benzofuroyl)phenoxyacetic acid] | 190 ± 26.3 | 211 ± 33.3 | Phenol Red Retention % in Rats 100 mg/kg (p.o.) [2]: 217.2 ± 17.2% |
| CCc1oc2ccccc2c1C(=O)c1ccc(O)c([N+](=O)[O-])c1 [Compound 26, 2-ethyl-3-benzofuranyl 3-nitro-4-hydroxyphenyl ketone] | – | – | phenol red retention, percentage by comparison with the control group, S.C. (given at a dose of 100 mg/kg) ([1]; s.c. 100 mg/kg (footnote *)): 222.2 ± 27.7% |
| CCc1oc2ccccc2c1C(=O)c1ccc(OCC(=O)NO)cc1 [Compound 8, 4-(2-ethyl-3-benzofuroyl)phenoxyacetohydroxamide] | 129 ± 17.6 | 167 ± 26.6 | – |
| Cc1oc2ccccc2c1C(=O)c1ccc(O)cc1 [Compound 16, 2-methyl-3-(4-hydroxybenzoyl)benzofuran] | 112 ± 12.5 | 111 ± 11.1 | – |
| Cc1oc2ccccc2c1C(=O)c1ccc(OCC(=O)O)cc1 [Compound 18, 4-(2-methyl-3-benzofuroyl)phenoxyacetic acid] | 135 ± 40 | 112 ± 15.4 | – |
| CCCCOC(=O)COc1ccc(C(OCCCC)c2c(CC)oc3ccccc23)cc1 (stereo not drawn) [Compound 15, Butyl 4-(2-ethyl-3-butoxymethylbenzofuranyl)phenoxyacetate] | 175 ± 35 | 165 ± 34.6 | – |
| CCc1oc2ccccc2c1C(=O)c1ccc(OCc2nnn[nH]2)c(C)c1C [Compound 46, 5-[2,3-dimethyl-4-(2-ethyl-3-benzofuroyl)phenoxymethyl]tetrazole] | 240 ± 64 | – | – |
| CCOC(=O)COc1ccc(C(=O)c2c(CC)oc3ccccc23)cc1Cl [Compound 20, Ethyl 2-chloro-4-(2-ethyl-3-benzofuroyl)phenoxyacetate] | – | 128 ± 16.7 | – |
| CCOC(=O)COc1ccc(C(=O)c2c(CC)oc3ccccc23)cc1C [Compound 24, Ethyl 2-methyl-4-(2-ethyl-3-benzofuroyl)phenoxyacetate] | – | 172 ± 27.7 | – |

| Structure (SMILES) | response vs control in vivo at 200 mg/kg [1, 3] [%] | response vs control in vivo at 200 mg/kg [1, 4] [%] | also measured |
| --- | --- | --- | --- |
| CCc1oc2ccccc2c1C(=O)c1ccc(OCC(=O)OC)cc1 [Compound 11, Methyl 4-(2-ethyl-3-benzofuroyl)phenoxyacetate] | – | 114 ± 9.5 | – |
| CCc1oc2ccccc2c1C(=O)c1ccc(OC(C)C(=O)O)cc1 (stereo not drawn) [Compound 5, 4-(2-ethyl-3-benzofuroyl)phenoxy-2-methylacetic acid] | 176 ± 17.6 | 158 ± 15.1 | – |
| CCc1oc2ccccc2c1C(=O)c1cc(C)c(OCc2nnn[nH]2)c(C)c1 [Compound 48, 5-[2,6-dimethyl-4-(2-ethyl-3-benzofuroyl)phenoxymethyl]tetrazole] | 296 ± 56 | – | – |
| CCOC(=O)COc1ccc(C(=O)c2c(CC)oc3ccccc23)cc1 [Compound 6, Ethyl 4-(2-ethyl-3-benzofuroyl)phenoxyacetate] | 119 ± 2.3 | 207 ± 32.5 | – |
| CCc1oc2ccccc2c1C(=O)c1cc(C)c(OCc2nnn[nH]2)cc1C [Compound 47, 5-[2,5-dimethyl-4-(2-ethyl-3-benzofuroyl)phenoxymethyl]tetrazole] | 232 ± 28 | – | – |
| CCc1oc2ccccc2c1C(=O)c1ccc(O)c(C)c1 [Compound 23, 2-ethyl-3-benzofuranyl 3-methyl-4-hydroxyphenyl ketone] | – | 81 ± 14.3 | – |
| CCOC(=O)COc1ccc(C(=O)c2c(C)oc3ccccc23)cc1 [Compound 17, Ethyl 4-(2-methyl-3-benzofuroyl)phenoxyacetate] | 105 ± 10 | 115 ± 19.2 | – |
| CCc1sc2ccccc2c1C(=O)c1ccc(O)cc1 [Compound 29, 2-ethyl-3-(4-hydroxybenzoyl)thianaphthene] | – | 100 ± 21.4 | – |
| CCOC(=O)COc1ccc(C(OCC)c2c(CC)oc3ccccc23)cc1 (stereo not drawn) [Compound 14] | 120 ± 15 | 135 ± 34.6 | – |
| CCc1oc2ccccc2c1C(=O)c1ccc(OCc2nnn[nH]2)cc1 [Compound 43, 5-[4-(2-ethyl-3-benzofuroyl)phenoxymethyl]tetrazole] | 430 ± 80 | – | – |
| CCc1oc2ccccc2c1C(=O)c1cc(C)c(O)c(C)c1 [Compound 40, 2-ethyl-3-(3,5-dimethyl-4-hydroxybenzoyl)benzofuran] | 183 ± 22.2 | – | – |
| CCc1oc2ccccc2c1C(=O)c1cccc(OCC(=O)O)c1 [Compound 2, 3-(2-ethyl-3-benzofuroyl)phenoxyacetic acid] | – | 180 ± 15.4 | – |
| CCc1oc2ccccc2c1C(=O)c1ccc(OCCC(=O)O)cc1 [Compound 4, 4-(2-ethyl-3-benzofuroyl)phenoxypropionic acid] | – | 143 ± 19 | – |
| CCOC(=O)COc1ccc(C(=O)c2c(CC)oc3ccccc23)c(C)c1C [Compound 34, Ethyl 2,3-dimethyl-4-(2-ethyl-3-benzofuroyl)phenoxyacetate] | 124 ± 28.6 | – | – |
| CCOC(=O)COc1c(C)cc(C(=O)c2c(CC)oc3ccccc23)cc1C [Compound 41, Ethyl 2,6-dimethyl-4-(2-ethyl-3-benzofuroyl)phenoxyacetate] | 183 ± 27.8 | – | – |
| CCOC(=O)COc1ccc(C(=O)c2c(CC)oc3ccccc23)cc1[N+](=O)[O-] [Compound 27, Ethyl 2-nitro-4-(2-ethyl-3-benzofuroyl)phenoxyacetate] | – | 111 ± 11.1 | – |
| CCc1oc2ccccc2c1C(=O)c1cc(C)c(OCC(=O)O)c(C)c1 [Compound 42, 2,6-dimethyl-4-(2-ethyl-3-benzofuroyl)phenoxyacetic acid] | 394 ± 44.4 | – | – |
| CCOC(=O)COc1cc(C)c(C(=O)c2c(CC)oc3ccccc23)cc1C [Compound 38, Ethyl 2,5-dimethyl-4-(2-ethyl-3-benzofuroyl)phenoxyacetate] | 324 ± 19 | – | – |
| CCc1oc2ccccc2c1C(=O)c1cc(C)c(OCC(=O)OC)cc1C [Compound 37, Methyl 2,5-dimethyl-4-(2-ethyl-3-benzofuroyl)phenoxyacetate] | 254 ± 15.6 | – | – |
| CCc1oc2ccccc2c1C(=O)c1ccc(OCc2nnn[nH]2)c(Cl)c1 [Compound 44, 5-[2-chloro-4-(2-ethyl-3-benzofuroyl)phenoxymethyl]tetrazole] | 175 ± 17.9 | – | – |
| CCc1oc2ccccc2c1C(O)c1ccc(O)cc1 (stereo not drawn) [Compound 12, (2-ethyl-3-benzofuranyl)-4-hydroxyphenylmethanol] | – | 100 ± 21.4 | – |
| CCc1oc2ccccc2c1C(=O)c1ccc(OCc2nnn[nH]2)c(C)c1 [Compound 45, 5-[2-methyl-4-(2-ethyl-3-benzofuroyl)phenoxymethyl]tetrazole] | 218 ± 21.4 | – | – |
